Measured values published in patent US20050197338A1, “Substituted pyrazole urea compounds for the treatment of inflammation” (priority 2003, published 2005).

biological target: T1, Rat IKK-2 (Rattus norvegicus, UniProt Q9QY78); experiment: Rat IKK-2 enzyme assay; type: biochemical; conditions: read-out: IC50 (μM) rIKK-2
T1 sequence (Q9QY78 1-757): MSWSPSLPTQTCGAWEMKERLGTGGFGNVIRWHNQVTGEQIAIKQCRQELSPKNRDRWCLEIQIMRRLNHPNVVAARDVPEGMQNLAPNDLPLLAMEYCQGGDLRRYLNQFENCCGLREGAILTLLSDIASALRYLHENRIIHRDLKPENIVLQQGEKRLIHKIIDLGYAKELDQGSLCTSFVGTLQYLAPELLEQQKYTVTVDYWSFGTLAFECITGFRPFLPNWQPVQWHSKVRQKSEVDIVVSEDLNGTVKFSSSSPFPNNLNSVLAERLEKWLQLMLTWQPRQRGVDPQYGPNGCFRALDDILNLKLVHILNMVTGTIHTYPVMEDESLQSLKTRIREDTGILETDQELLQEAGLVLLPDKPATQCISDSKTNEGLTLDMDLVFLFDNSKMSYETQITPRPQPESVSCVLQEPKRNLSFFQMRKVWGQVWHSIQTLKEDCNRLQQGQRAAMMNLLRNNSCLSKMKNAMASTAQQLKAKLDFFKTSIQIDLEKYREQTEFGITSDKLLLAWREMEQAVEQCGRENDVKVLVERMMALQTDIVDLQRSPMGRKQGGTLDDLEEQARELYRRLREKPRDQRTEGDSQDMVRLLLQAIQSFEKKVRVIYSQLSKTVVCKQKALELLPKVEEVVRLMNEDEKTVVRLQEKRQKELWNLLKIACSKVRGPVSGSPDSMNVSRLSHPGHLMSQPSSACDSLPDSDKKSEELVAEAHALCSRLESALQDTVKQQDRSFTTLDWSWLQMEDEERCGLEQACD

**Q.** `NC(=O)Nc1cn(-c2ccc(-c3ccc(C(=O)OCc4ccccc4F)c(F)c3)cc2)nc1C(N)=O` [Example 162, 2-fluorobenzyl 4′-{3-(aminocarbonyl)-4-[(aminocarbonyl)amino]-1H-pyrazol-1-yl}-3-fluoro-1,1′-biphenyl-4-carboxylate] was tested. Which IC50 did it give?
**A.** Its IC50 is 13.6 µM.

**Q.** Which IC50 does the source give for `NC(=O)Nc1cn(-c2ccc(-c3cc4ccccc4[nH]3)cc2)nc1C(N)=O` [Example 141, 4-[(aminocarbonyl)amino]-1-[4-(1H-indol-2-yl)phenyl]-1H-pyrazole-3-carboxamide] here?
**A.** Its IC50 is 4 µM.

**Q.** For `N#CCOc1cc(F)ccc1-c1ccc(-n2cc(NC(N)=O)c(C(N)=O)n2)cc1` [Example 173, 4-[(aminocarbonyl)amino]-1-[2′-(cyanomethoxy)-4′-fluoro-1,1′-biphenyl-4-yl]-1H-pyrazole-3-carboxamide], which IC50 is on record?
**A.** The IC50 was 0.105 µM.

**Q.** For `NC(=O)Nc1cn(-c2ccc(Br)c(F)c2)nc1C(N)=O` [Example 225, 4-[(aminocarbonyl)amino]-1-(4-bromo-3-fluorophenyl)-1H-pyrazole-3-carboxamide], which IC50 is on record?
**A.** The IC50 was 0.292 µM.

**Q.** With `NC(=O)Nc1cn(-c2ccc(-c3cccc(O)c3)cc2F)nc1C(N)=O` [Example 247, 4-[(aminocarbonyl)amino]-1-(3-fluoro-3′-hydroxy-1,1′-biphenyl-4-yl)-1H-pyrazole-3-carboxamide] as the molecule, how does the IC50 read?
**A.** Its IC50 is 0.249 µM.

**Q.** `N#Cc1ccc(-c2ccc(-n3cc(NC(N)=O)c(C(N)=O)n3)cc2)cc1` [Example 100, 4-[(aminocarbonyl)amino]-1-(4′-cyano-1,1′-biphenyl-4-yl)-1H-pyrazole-3-carboxamide] was tested. Which IC50 did it give?
**A.** The IC50 was 0.171 µM.

**Q.** Which IC50 does the source give for `NC(=O)Nc1cn(-c2ccc(-c3ccc(C(=O)OCc4ccc(F)cc4)c(F)c3)cc2)nc1C(N)=O` [Example 164, 4-fluorobenzyl 4′-{3-(aminocarbonyl)-4-[(aminocarbonyl)amino]-1H-pyrazol-1-yl}-3-fluoro-1,1′-biphenyl-4-carboxylate] here?
**A.** The IC50 was 7.27 µM.

**Q.** With `N#CCOc1ccc(F)cc1-c1ccc(-n2cc(NC(N)=O)c(C(N)=O)n2)cc1` [Example 172, 4-[(aminocarbonyl)amino]-1-[2′-(cyanomethoxy)-5′-fluoro-1,1′-biphenyl-4-yl]-1H-pyrazole-3-carboxamide] as the molecule, how does the IC50 read?
**A.** The IC50 was 0.033 µM.

**Q.** How did the IC50 turn out when `NC(=O)Nc1cn(-c2ccc(-c3cc(F)ccc3O)cc2)nc1C(N)=O` [Example 99, 4-[(aminocarbonyl)amino]-1-(5′-fluoro-2′-hydroxy-1,1′-biphenyl-4-yl)-1H-pyrazole-3-carboxamide] was run?
**A.** Its IC50 is 0.555 µM.

**Q.** Which IC50 does the source give for `CC(C)(C)OC(=O)COc1cccc(-c2ccc(-n3cc(NC(N)=O)c(C(N)=O)n3)cc2)c1` [Example 174, tert-butyl [(4′-{3-(aminocarbonyl)-4-[(aminocarbonyl)amino]-1H-pyrazol-1-yl}-1,1′-biphenyl-3-yl)oxy]acetate] here?
**A.** Its IC50 is 2.49 µM.

**Q.** How did the IC50 turn out when `NC(=O)Nc1cn(-c2cccc(-c3ccc(F)cc3O)c2)nc1C(N)=O` [Example 92, 4-[(aminocarbonyl)amino]-1-(4′-fluoro-2′-hydroxy-1,1′-biphenyl-3-yl)-1H-pyrazole-3-carboxamide] was run?
**A.** The IC50 was 2.66 µM.

**Q.** `N#CCCc1cccc(-c2ccc(-n3cc(NC(N)=O)c(C(N)=O)n3)cc2)c1` [Example 186, 4-[(aminocarbonyl)amino]-1-[3′-(2-cyanoethyl)-1,1′-biphenyl-4-yl]-1H-pyrazole-3-carboxamide] was tested. Which IC50 did it give?
**A.** Its IC50 is 0.475 µM.

**Q.** How did the IC50 turn out when `NC(=O)Nc1cn(-c2ccc(-c3cccc(O)c3)c(Cl)c2)nc1C(N)=O` [Example 7, 4-[(aminocarbonyl)amino]-1-(2-chloro-3′-hydroxy-1,1′-biphenyl-4-yl)-1H-pyrazole-3-carboxamide] was run?
**A.** Its IC50 is 0.121 µM.

**Q.** With `CNC(=O)Nc1cn(-c2cccc(Br)c2)nc1C(N)=O` [Example 15, 1-(3-bromophenyl)-4-{[(methylamino)carbonyl]amino}-1H-pyrazole-3-carboxamide] as the molecule, how does the IC50 read?
**A.** The IC50 was 4.45 µM.

**Q.** For `CN(C)CCN(C)C(=O)c1ccc(-c2ccc(-n3cc(NC(N)=O)c(C(N)=O)n3)cc2)cc1F` [Example 160, 4-[(aminocarbonyl)amino]-1-(4′-{[[2-(dimethylamino)ethyl](methyl)amino]carbonyl}-3′-fluoro-1,1′-biphenyl-4-yl)-1H-pyrazole-3-carboxamide], which IC50 is on record?
**A.** The IC50 was 7.19 µM.

**Q.** How did the IC50 turn out when `NC(=O)Nc1cn(-c2ccc(Br)cc2)nc1C(N)=O` [Example 19, 1-(1-(4-bromophenyl)-3-carbamoyl-1H-pyrazol-4-yl)urea] was run?
**A.** Its IC50 is 0.352 µM.

**Q.** Which IC50 does the source give for `NC(=O)Nc1cn(-c2cccc(-c3cc(F)ccc3O)c2)nc1C(N)=O` [Example 93, 4-[(aminocarbonyl)amino]-1-(5′-fluoro-2′-hydroxy-1,1′-biphenyl-3-yl)-1H-pyrazole-3-carboxamide] here?
**A.** Its IC50 is 1.82 µM.

**Q.** For `NC(=O)Nc1cn(-c2ccc(S(=O)(=O)C3CCCCC3)cc2)nc1C(N)=O` [Example 192, 1-(3-carbamoyl-1-(4-(cyclohexylsulfonyl)phenyl)-1H-pyrazol-4-yl)urea], which IC50 is on record?
**A.** The IC50 was 0.297 µM.

**Q.** How did the IC50 turn out when `NC(=O)Nc1cn(-c2ccc(-c3ccc(F)cc3O)cc2)nc1C(N)=O` [Example 98, 4-[(aminocarbonyl)amino]-1-(4′-fluoro-2′-hydroxy-1,1′-biphenyl-4-yl)-1H-pyrazole-3-carboxamide] was run?
**A.** The IC50 was 0.668 µM.

**Q.** Which IC50 does the source give for `Cc1cc(-n2cc(NC(N)=O)c(C(N)=O)n2)ccc1I` [Example 8, 1-(4-iodo-3-methyl-phenyl)-4-ureido-1H-pyrazole-3-carboxylic acid amide] here?
**A.** The IC50 was 0.089 µM.
